The values below come from patent US20250092383A1, “COMPOUNDS AND METHODS FOR FBXO22-MEDIATED PROTEIN DEGRADATION” (Northwestern University, priority 2023, published 2025).

SMILES strings stand for the structures.

For one experiment, the target named is FKBP12 (Homo sapiens, UniProt P62942). The experiment can be described thus: Degradation of endogenous FKBP12 in cancer cell lines, wild type vs FBXO22 knockout. Format: cell-based. On the procedure:
The bar graph represents quantification of the FLAG-FKBP12/HSP90 protein content. Data are presented as the mean values±s.e.m. […] HEK293T cells expressing HA-FBXO22 were treated with 0.025-15 μM 22-SLF for 8 h. The graph represents quantification of the FLAG-FKBP12/HSP90 protein content. Data are presented as the mean values (n=2 biological independent samples). […] The bar graph represents quantification of the FLAG-FKBP12/HSP90 protein content. KO, knockout; WT, wild type. Data are presented as the mean values (n=2 biological independent samples). […] The bar graph represents quantification of the FLAG-FKBP12/HSP90 protein content. Data are presented as the mean values±s.e.m. […] The result is representative of two independent experiments with similar results. WCL, whole-cell lysate; IP, immunoprecipitate.
Data is obtained from Gene Expression Profiling Interactive Analysis (GEPIA). […] KDM4A and KDM4B are two reported substrates of FBXO22.
As an F-box protein, FBXO22 is a pivotal player in the context of tumor progression. FBXO22 has many oncogenic functions, including propelling the ubiquitination and subsequent degradation of a diverse spectrum of substrates, such as histone lysine demethylase 4 subfamily KDM4A/B, methylated p53, p21, PTEN, KLF4, and LKB1. […]

The next experiment deals with T1, FKBP12-EGFP (Homo sapiens, UniProt P62942).
T1 construct: expressed in transfected cells
T1 sequence (P62942 whole entry): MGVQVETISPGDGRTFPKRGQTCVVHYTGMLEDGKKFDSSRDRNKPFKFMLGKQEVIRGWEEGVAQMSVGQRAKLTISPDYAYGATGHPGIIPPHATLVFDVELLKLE
Put plainly: Fluorescence quantification of FKBP12-EGFP levels in HEK293T cells. The class given is cell-based. Particulars: HEK293T CRISPR activation cells with FBXO22-activating sgRNAs; 2 μM, 24 hours. The protocol: FIGS. 1A-1E show an E3 ligase focused CRISPR-Cas9 transcriptional activation screen identifies FBXO22 that supports 22-SLF-induced reduction in FKBP12-EGFP expression levels. FIG. 1A is a schematic representation of the steps in the CRISPR-Cas9 transcriptional activation screen. […] FIG. 1C is a volcano plot showing the E3 ligase focused CRISPR-Cas9 transcriptional activation screen for FKBP12-EGFP degradation after treatment of 2 μM 22-SLF in HEK293T CRISPR-Cas9 transcriptional activation cells for 24 hours. […] The statistical significance was evaluated through unpaired two-tailed Student's t-tests, comparing cells transduced with FBXO22 sgRNA to control sgRNA. Statistical significance denoted ****P<0.0001. […] The statistical significance was evaluated through unpaired two-tailed Student's t-tests, comparing cells treated with 22-SLF to DMSO. Statistical significance denoted as ***P<0.001 and ns: not significant.
FIGS. 6A-6E show generation of CRISPR-Cas9 transcriptional activation cells for the discovery of E3 ligases supporting the degradation of FKBP12-EGFP. […] The statistical significance was evaluated through unpaired two-tailed Student's t-tests, comparing cells treated with Len-SLF or SLF to DMSO. […] The statistical significance was evaluated through unpaired two-tailed Student's t-tests, comparing cells transduced with IL-1β sgRNA to control sgRNA. […]

Sequence of FKBP12 (P62942 whole entry): as above

In the case of `CCC(C)(C)C(=O)C(=O)N1CCCC[C@H]1C(=O)O[C@H](CCc1ccc(OC)c(OC)c1)c1cccc(OCC(=O)NCCCOCCOCCOCCCN(C(=O)CCl)C(C(=O)NCc2ccccc2)c2nc3ccccc3s2)c1` (stereo partly drawn) [22-SLF], on FKBP12 (A549, MDA-MB-231 and PC3, 2 μM in A549), the “Degradation of endogenous FKBP12, wild-type cells” value was “promoted degradation of endogenous FKBP12”. Also, the “Degradation of endogenous FKBP12, FBXO22 knockout cells” value on FKBP12 (A549, MDA-MB-231 and PC3 FBXO22 knockout) is “abolished upon FBXO22 knockout”. Further, the “FKBP12-EGFP expression in FBXO22-activated cells” value at FKBP12-EGFP is on record as “loss of FKBP12-EGFP expression”.
